# Test results published in patent US11504394B2, “Targeted ionophore-based metal delivery” (The Regents of the University of California, priority 2018, dated 2022).
# Legend:
# [1] = test system: mouse model for non-alcoholic fatty liver disease; experiment: High fat diet mouse model for non-alcoholic fatty liver disease; assay type: in vivo, mice
# Procedure: The potential of Gal-Cu(gtsm) in the treatment of non-alcoholic fatty liver disease (NFALD) was assessed in a mouse model. Mice were subjected to a high fat diet.
# liver tissue = experiment: Liver tissue histology, H&E staining; assay type: in vivo
# Procedure: FVB-luc+ mice were injected i.p. with vehicle (50 μL 1:1 DMSO:DPBS), Cu(gtsm), or Gal-Cu(gtsm) at a 0.75 mg Cu/kg mouse dose. After six hours, mice were euthanized with CO2 asphyxiation followed by cervical dislocation and liver tissue was extracted. Liver sections were fixed in a 10% formalin in PBS solution and sent to Histowiz Inc. (Brooklyn, N.Y.) for further processing and hematoxylin & eosin staining.
# [2] = Retention of copper in presence of excess Zn^2+ and Fe^2+; assay type: physicochemical; details: 1000-fold excess of Zn^2+ and Fe^2+
# Procedure: All spectroscopic measurements were performed in 20 mM PBS, pH 7.4 unless otherwise indicated. Absorption spectra were acquired on a Varian Cary 50 spectrophotometer.
# ATP7B Cu export protein = experiment: Western blot ATP7B in high fat diet mice; assay type: in vivo
# [3] = test system: HEK 293T (no ASGPR expression) cells; experiment: Cellular copper delivery by ICP-MS, HEK 293T; assay type: cell-based; details: 4 μM, three hours, serum-free DMEM
# Procedure: Cells were maintained by the UC Berkeley Tissue Culture Facility. HEK 293T and HepG2 cells were maintained as a monolayer in exponential growth at 37° C. in a 5% CO2 atmosphere. HEK 293T cells were maintained in Dulbecco's Modified Eagle Medium (DMEM, Gibco) supplemented with 10% fetal bovine serum (FBS, Hyclone), and glutamax (Gibco). HepG2 cells were maintained in low glucose DMEM with L-glutamine and sodium pyruvate (Gibco). One day before ionophore treatment, cells were passaged and plated in DMEM with glutamax supplemented with 10% FBS on either poly D-lysine-coated (HEK 293T) or gelatin-coated (HepG2) sterile 6-well Corning polystyrene plates. Cells were grown to 60 to 80% confluency prior to ionophore treatment.
# Cells were washed twice with serum-free DMEM. 2 mM stock solutions of Cu(gtsm) or Gal-Cu(gtsm) were diluted in serum-free DMEM to a final ionophore concentration of 4 μM. […] Samples (150 μL) were further diluted in 2 mL 2% nitric acid (made freshly from concentrated nitric acid and Milli-Q water) in 15 mL tubes (Sarstedt) and analyzed on a Thermo Fisher iCAP Qc ICP mass spectrometer in kinetic energy discrimination (KED) mode against a standard curve of known copper and phosphorus concentrations (CMS-5, Inorganic Ventures), with Ga (20 μg/L, Inorganic Ventures) as an internal standard. […]
# [4] = test system: blood urea nitrogen (BUN); experiment: Blood urea nitrogen (BUN) assay on serum; assay type: in vivo, mice; details: 0.75 mg Cu/kg
# Procedure: Mice were immediately euthanized by cervical dislocation.
# Liver lysate (TBARS Assay via TCA Method, Cayman Chemical) and serum (BUN Assay, Invitrogen; ALT Assay, Cayman Chemical) samples were processed according to manufacturer instructions; sample concentration was selected based on initial dilution screening to fall within linear range of the standard curve. All samples were analyzed in triplicate.
# MT-I/MT-II = experiment: Western blot of liver lysates, MT-I/II; assay type: in vivo, mouse; details: 6 hours and 24 hours
# Procedure: Frozen mouse livers were minced into 50 mg samples on dry ice and homogenized in ice-cold RIPA buffer (25 mM Tris.HCl pH 7.6, 150 mM NaCl, 1% NP-40, 1% sodium deoxycholate, 0.1% SDS) containing protease inhibitor cocktail with EDTA (Roche) at 100 mg/mL using a hand-held mechanical homogenizer. Homogenates were incubated on ice for 30 min and centrifuged at 12,000×g for 20 min at 4° C. The soluble protein lysates were collected from underneath the upper lipid layer with a pipette and transferred to new tubes. Protein concentration was determined using a detergent-compatible Bradford Assay (Pierce).
# Protein lysates were denatured in NuPAGE lithium dodecyl sulfate sample buffer (Invitrogen) containing 10% v/v β-mercaptoethanol as a reducing agent. […] The membranes were washed 5 times for 5 minutes in TBST, then visualized using enhanced chemiluminescence (Western Lighting Plus for visualizing CCS and ATP7B, Perkin Elmer; Western Clarity Max for visualizing CTR1 and MT, Bio-Rad) recorded on a BioRad GelDoc imaging station. β-actin was probed to determine equal loading using anti-β-actin (sc-69879, Santa Cruz Biotechnology) and AlexaFluor 647-conjugated anti-mouse IgG (A31571, Molecular Probes) antibodies at 1:5000 and 1:2500 dilutions, respectively, with visualization using fluorescence recorded on a BioRad GelDoc imaging station.
compound,measurement,setting,value
CNC1=N[N+]2=CC=[N+]3N=C(NCCOCCOCCOC4OC(CO)C(O)C(O)C4NC(C)=O)[S][Cu-2]23[S]1 (centres unmarked) [Gal-Cu(gtsm)],tissue copper content (ICP-MS),[1],restores copper homeostasis
same,glucose tolerance test,[1]; vs untreated HFD mice,improved metabolism
same,liver steatosis and fattiness,[1]; vs untreated HFD mice,significantly reduced
same,serum ALT assay,[1]; vs untreated HFD mice,rescued liver health
same,toxicity as indicated by liver histology and toxicity assays,liver tissue; 0.75 mg Cu/kg i.p.,non-toxic
same,H&E liver histology,"liver tissue; 6 hours, 0.75 mg Cu/kg mouse",largely resemble those of the vehicle-treated control mice
same,retention of copper in presence of other metal ions,[2],retains copper selectively
same,ATP7B expression,ATP7B Cu export protein,reduced expression
same,Cu increase relative to basal levels (^63Cu/^31P),[3],does not increase cellular copper beyond basal levels
same,BUN levels,[4],not
same,MT-I/MT-II expression in liver,MT-I/MT-II,increases dramatically
